From ChEMBL document CHEMBL3244367, “Synthesis and determination of antiviral activity of the 2'(3')-O-methyl derivatives of ribavirin (1-beta-D-ribofuranosyl-1,2,4-triazole-3-carboxamide)” (1977)
In brackets after ≈: the same amount, converted by molar mass.

Tested on: Vaccinia virus
Assay: Antiviral activity against Vaccinia virus infected in primary rabbit kidney cells assessed as inhibition of virus-induced cytopathogenicity treated immediately after virus adsorption measured 2 days after virus infection
Format: functional
Details: Orthopoxvirus vaccinia, 48 h

SMILES | MIC50 [µg/mL]
CO[C@@H]1[C@H](O)[C@@H](CO)O[C@H]1n1cnc(C(N)=O)n1 | > 200
NC(=O)c1ncn([C@@H]2O[C@H](CO)[C@@H](O)[C@H]2O)n1 [RIBAVIRIN] | 20 (≈ 81.9 µM)
CO[C@H]1[C@@H](O)[C@H](n2cnc(C(N)=O)n2)O[C@@H]1CO | > 200
